The text below walks through data of patent publication US9206219B2, “17-hydroxy-17-pentafluorethyl-estra-4,9(10)-dien-11-aryl derivatives, methods for the production thereof and the use thereof for treating diseases” (Bayer Intellectual Property GmbH, priority 2009, dated 2015).

In experiment [1] the target is T1, human progesterone receptor A (Homo sapiens, UniProt P06401).
T1 construct: expressed in transfected cells; host or cells: SK-N-MC human neuroblastoma cells, stably transfected with pRChPR-A-neo and pMMTV-LUC
T1 sequence (P06401 1-769 isoform P06401-2): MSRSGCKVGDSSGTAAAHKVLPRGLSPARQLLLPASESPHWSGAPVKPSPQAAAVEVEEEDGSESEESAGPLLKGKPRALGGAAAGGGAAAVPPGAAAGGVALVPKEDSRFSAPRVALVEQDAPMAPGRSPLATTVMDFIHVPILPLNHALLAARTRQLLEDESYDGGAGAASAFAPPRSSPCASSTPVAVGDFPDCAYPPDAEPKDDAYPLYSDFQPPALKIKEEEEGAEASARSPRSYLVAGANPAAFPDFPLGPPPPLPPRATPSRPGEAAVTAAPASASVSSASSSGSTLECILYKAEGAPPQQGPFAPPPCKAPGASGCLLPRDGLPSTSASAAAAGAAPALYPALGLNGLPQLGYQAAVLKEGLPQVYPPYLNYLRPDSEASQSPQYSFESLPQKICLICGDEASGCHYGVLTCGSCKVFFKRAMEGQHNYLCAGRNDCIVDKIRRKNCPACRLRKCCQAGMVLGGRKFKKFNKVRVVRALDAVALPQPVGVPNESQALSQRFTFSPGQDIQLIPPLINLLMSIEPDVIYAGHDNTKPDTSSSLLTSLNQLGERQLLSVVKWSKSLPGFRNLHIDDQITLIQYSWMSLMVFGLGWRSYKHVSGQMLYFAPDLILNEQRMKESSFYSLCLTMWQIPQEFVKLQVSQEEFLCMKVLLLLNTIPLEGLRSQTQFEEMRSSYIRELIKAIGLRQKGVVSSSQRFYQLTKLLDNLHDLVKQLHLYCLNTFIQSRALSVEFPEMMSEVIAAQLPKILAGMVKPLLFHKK
Kind of experiment: Progesterone receptor-antagonistic action in stably transfected SK-N-MC cells, MMTV-LUC reporter (PR-A). Particulars: antagonistic potency vs 0.1 nmol/l promegestone, 24 hours. It is filed as cell-based. The method, then:
(§1) Progesterone Receptor-Antagonistic Action in Stable Transfectants of Human Neuroblastoma Cells (SK-N-MC Cells) with the Human Progesterone A or Progesterone B Receptor and an MN-LUC Reporter Construct
(§2) SK-N-MC cells (human neuroblastoma cells) which have been stably transfected with plasmids expressing the human progesterone receptor B (pRChPR-B-neo) or the human progesterone receptor A (pRChPR-A-neo) and a reporter construct (pMMTV-LUC) were incubated for 24 hours either in the absence (negative control) or in the presence of ascending amounts of the particular test compound (0.01 nmol/l, 0.1 nmol/l, 1 nmol/l, 10 nmol/l, 100 nmol/l and […]), in order to determine the agonistic efficacy. As a positive control of the reporter gene induction, the cells were treated with the synthetic gestagen promegestone (0.01 nmol/l, 0.1 nmol/l, 1 nmol/l, 10 nmol/l, 100 nmol/l and […]). To determine the antagonistic activity, the cells were treated with 0.1 nmol/l promegestone and additionally with ascending amounts of the particular test compound (0.01 nmol/l, 0.1 nmol/l, 1 nmol/l, 10 nmol/l, 100 nmol/l and […]). The activity of the reporter gene LUC (LUC=luciferase) was determined in the cell lysates and measured as RLU (relative light units). All measurements are reported as % efficacy and as EC50 and IC50 concentrations.

The target in experiment [2] is T2, human progesterone receptor B (Homo sapiens, UniProt P06401).
T2 construct: expressed in transfected cells; host or cells: SK-N-MC human neuroblastoma cells, stably transfected with pRChPR-B-neo and pMMTV-LUC
T2 sequence (P06401 1-933): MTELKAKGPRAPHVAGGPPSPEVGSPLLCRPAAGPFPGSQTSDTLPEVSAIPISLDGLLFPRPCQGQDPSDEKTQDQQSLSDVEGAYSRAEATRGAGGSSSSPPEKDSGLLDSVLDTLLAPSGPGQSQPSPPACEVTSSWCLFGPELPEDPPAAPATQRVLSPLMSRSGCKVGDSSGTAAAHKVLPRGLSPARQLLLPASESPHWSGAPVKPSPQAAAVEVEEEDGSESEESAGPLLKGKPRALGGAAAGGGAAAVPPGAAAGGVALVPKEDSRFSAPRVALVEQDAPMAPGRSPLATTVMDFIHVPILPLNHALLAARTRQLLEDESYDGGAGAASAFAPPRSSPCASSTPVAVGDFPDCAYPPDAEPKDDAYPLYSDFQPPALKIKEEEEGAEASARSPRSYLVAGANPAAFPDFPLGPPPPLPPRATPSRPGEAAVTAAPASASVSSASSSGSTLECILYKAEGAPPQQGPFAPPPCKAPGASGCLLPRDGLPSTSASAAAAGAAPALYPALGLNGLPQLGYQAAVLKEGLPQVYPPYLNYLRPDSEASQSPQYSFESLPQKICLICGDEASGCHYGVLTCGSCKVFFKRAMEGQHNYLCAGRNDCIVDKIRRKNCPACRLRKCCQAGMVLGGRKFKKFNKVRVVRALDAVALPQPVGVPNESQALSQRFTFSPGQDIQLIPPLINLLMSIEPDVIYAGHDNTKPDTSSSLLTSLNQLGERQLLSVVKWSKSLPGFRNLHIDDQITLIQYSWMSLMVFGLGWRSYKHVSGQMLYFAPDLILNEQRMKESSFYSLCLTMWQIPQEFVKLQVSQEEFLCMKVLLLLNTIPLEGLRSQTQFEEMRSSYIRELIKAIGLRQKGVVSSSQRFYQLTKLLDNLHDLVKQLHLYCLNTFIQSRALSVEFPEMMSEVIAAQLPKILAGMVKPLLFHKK
Kind of experiment: Progesterone receptor-antagonistic action in stably transfected SK-N-MC cells, MMTV-LUC reporter (PR-B). It is filed as cell-based. Particulars: antagonistic potency vs 0.1 nmol/l promegestone, 24 hours. The method, then:
as §1, §2

For orientation: IC50 means the point on the concentration scale where inhibition reaches its midpoint. A high value points to weaker potency. As for `Cc1ccc(NC(=O)NCc2ccc([C@H]3C[C@@]4(C)[C@@H](CC[C@@]4(O)C(F)(F)C(F)(F)F)[C@@H]4CCC5=CC(=O)CCC5=C43)cc2)cc1` [Example 25, 1-[4-((8S,11R,13S,14S,17S)-17-hydroxy-13-methyl-3-oxo-17-pentafluoroethyl-2,3,6,7,8,11,12,13,14,15,16,17-dodecahydro-1H-cyclopenta[a]phenanthren-11-yl)benzyl]-3-p-tolylurea], the half-inhibitory concentration (IC50) in experiment [1] worked out at 0.3 nM; in experiment [2], 0.6 nM.
The matching figures for `C[C@]12C[C@H](c3ccc(CNC(=O)NCC(=O)O)cc3)C3=C4CCC(=O)C=C4CC[C@H]3[C@@H]1CC[C@@]2(O)C(F)(F)C(F)(F)F` [Example 26, {3-[4-((8S,11R,13S,14S,17S)-17-hydroxy-13-methyl-3-oxo-17-pentafluoroethyl-2,3,6,7,8,11,12,13,14,15,16,17-dodecahydro-1H-cyclopenta[a]phenanthren-11-yl)benzyl]ureido}acetic acid]: 24 nM and 64 nM.
`C[C@]12C[C@H](c3ccc(CNC(=O)NCCC(=O)O)cc3)C3=C4CCC(=O)C=C4CC[C@H]3[C@@H]1CC[C@@]2(O)C(F)(F)C(F)(F)F` [Example 27, 3-{3-[4-((8S,11R,13S,14S,17S)-17-hydroxy-13-methyl-3-oxo-17-pentafluoroethyl-2,3,6,7,8,11,12,13,14,15,16,17-dodecahydro-1H-cyclopenta[a]phenanthren-11-yl)benzyl]ureido}propionic acid]: the values for the IC50 in experiment [1] and in experiment [2] were 43 nM and 29 nM, respectively.
The matching figures for `C[C@]12C[C@H](c3ccc(CN=[N+]=[N-])cc3)C3=C4CCC(=O)C=C4CC[C@H]3[C@@H]1CC[C@@]2(O)C(F)(F)C(F)(F)F` [Example 28, (8S,11R,13S,14S,17S)-11-(4-azidomethylphenyl)-17-hydroxy-13-methyl-17-pentafluoroethyl-1,2,6,7,8,11,12,13,14,15,16,17-dodecahydrocyclopenta[a]phenanthren-3-one]: 0.01 nM and 0.08 nM.
Taken in the same sequence, the figures for `C[C@]12C[C@H](c3ccc(-c4nnn[nH]4)cc3)C3=C4CCC(=O)C=C4CC[C@H]3[C@@H]1CC[C@@]2(O)C(F)(F)C(F)(F)F` [Example 31, (8S,11R,13S,14S,17S)-17-hydroxy-13-methyl-17-pentafluoroethyl-11-[4-(1H-tetrazol-5-yl)phenyl]-1,2,6,7,8,11,12,13,14,15,16,17-dodecahydrocyclopenta[a]phenanthren-3-one] were 138 nM and 137 nM.
The matching figures for `COc1ccc(NC(=O)NCc2ccc([C@H]3C[C@@]4(C)[C@@H](CC[C@@]4(O)C(F)(F)C(F)(F)F)[C@@H]4CCC5=CC(=O)CCC5=C43)cc2)cc1` [Example 32, 1-[4-((8S,11R,13S,14S,17S)-17-hydroxy-13-methyl-3-oxo-17-pentafluoroethyl-2,3,6,7,8,11,12,13,14,15,16,17-dodecahydro-1H-cyclopenta[a]phenanthren-11-yl)benzyl]-3-(4-methoxyphenyl)urea]: 0.1 nM and 0.2 nM.
In the case of `C[C@]12C[C@H](c3ccc(CNC(=O)Nc4ccc(F)cc4)cc3)C3=C4CCC(=O)C=C4CC[C@H]3[C@@H]1CC[C@@]2(O)C(F)(F)C(F)(F)F` [Example 33, 1-(4-fluorophenyl)-3-[4-((8S,11R,13S,14S,17S)-17-hydroxy-13-methyl-3-oxo-17-pentafluoroethyl-2,3,6,7,8,11,12,13,14,15,16,17-dodecahydro-1H-cyclopenta[a]phenanthren-11-yl)benzyl]urea], the half-maximal inhibitory concentration (IC50) in experiment [1] and in experiment [2] was 0.8 nM each time.
Turning to `C[C@]12C[C@H](c3ccc(CNC(=O)Nc4ccc(Cl)cc4)cc3)C3=C4CCC(=O)C=C4CC[C@H]3[C@@H]1CC[C@@]2(O)C(F)(F)C(F)(F)F` [Example 34, 1-(4-chlorophenyl)-3-[4-((8S,11R,13S,14S,17S)-17-hydroxy-13-methyl-3-oxo-17-pentafluoroethyl-2,3,6,7,8,11,12,13,14,15,16,17-dodecahydro-1H-cyclopenta[a]phenanthren-11-yl)benzyl]urea], the concentration for half-maximal inhibition (IC50) came to 0.7 nM in experiment [1] and 0.8 nM in experiment [2].
The matching figures for `CC(C)(C)c1ccc(NC(=O)NCc2ccc([C@H]3C[C@@]4(C)[C@@H](CC[C@@]4(O)C(F)(F)C(F)(F)F)[C@@H]4CCC5=CC(=O)CCC5=C43)cc2)cc1` [Example 35, 1-(4-tert-butylphenyl)-3-[4-((8S,11R,13S,14S,17S)-17-hydroxy-13-methyl-3-oxo-17-pentafluoroethyl-2,3,6,7,8,11,12,13,14,15,16,17-dodecahydro-1H-cyclopenta[a]phenanthren-11-yl)benzyl]urea]: 0.3 nM and 0.6 nM.
Taken in the same sequence, the figures for `CCOC(=O)c1ccc(NC(=O)NCc2ccc([C@H]3C[C@@]4(C)[C@@H](CC[C@@]4(O)C(F)(F)C(F)(F)F)[C@@H]4CCC5=CC(=O)CCC5=C43)cc2)cc1` [Example 36, 4-{3-[4-((8S,11R,13S,14S,17S)-17-hydroxy-13-methyl-3-oxo-17-pentafluoroethyl-2,3,6,7,8,11,12,13,14,15,16,17-dodecahydro-1H-cyclopenta[a]phenanthren-11-yl)benzyl]ureido}benzoic acid ethyl ester] were 0.7 nM and 0.8 nM.
Taken in the same sequence, the figures for `C[C@]12C[C@H](c3ccc(CNC(=O)Nc4ccc(C(=O)O)cc4)cc3)C3=C4CCC(=O)C=C4CC[C@H]3[C@@H]1CC[C@@]2(O)C(F)(F)C(F)(F)F` [Example 38, 4-{3-[4-((8S,11R,13S,14S,17S)-17-hydroxy-13-methyl-3-oxo-17-pentafluoroethyl-2,3,6,7,8,11,12,13,14,15,16,17-dodecahydro-1H-cyclopenta[a]phenanthren-11-yl)benzyl]ureido}benzoic acid] were 25 nM and 36 nM.
In the case of `C[C@]12C[C@H](c3ccc(CNC(=O)Nc4ccc(N5CCCCC5)cc4)cc3)C3=C4CCC(=O)C=C4CC[C@H]3[C@@H]1CC[C@@]2(O)C(F)(F)C(F)(F)F` [Example 39, 1-[4-((8S,11R,13S,14S,17S)-17-hydroxy-13-methyl-3-oxo-17-pentafluoroethyl-2,3,6,7,8,11,12,13,14,15,16,17-dodecahydro-1H-cyclopenta[a]phenanthren-11-yl)benzyl]-3-(4-piperidin-1-ylphenyl)urea], the IC50 in experiment [1] is 0.1 nM; in experiment [2], 0.2 nM.
